From US9980943B2, “Methods of treating muscular dystrophy” (BOARD OF REGENTS OF THE NEVADA SYSTEM OF HIGHER EDUCATION, …, priority 2013, dated 2018)

Legend:
Format in all cases: cell-based, mouse
[1] = tested on: β-galactosidase in CMV-LacZ C2C12 myotubes; test: CMV-LacZ secondary screen in C2C12 myotubes (β-Gal stabilizing assay); conditions: C2C12 CMV-LacZ myotubes, fold relative to DMSO
Procedure, shortened: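 CMV-LacZ C2C12 line (clonal, FDG-screened); myoblasts/myotubes dosed 0.5–40 μM (0.5, 1, 5, 10, 20, 40 μM); n=2 per point; β-gal stabilization read-out.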

[2] = tested on: α7 integrin (LacZ reporter in α7+/LacZ myotubes); test: Myotube α7 integrin FDG assay (Burkin assay in myotubes, 96-well); conditions: myotubes
[3] = tested on: α7 integrin (LacZ reporter in α7βgal+/− myoblasts); test: Myoblast α7+/LacZ integrin FDG assay (Burkin assay in myoblasts, 96-well); conditions: α7+/LacZ myoblasts, 96-well

Compound | CMV-LACZ in Myotubes, signal relative to DMSO ([1]; 5 uM) | CMV-LACZ in Myotubes, signal relative to DMSO ([1]; 10 uM) | CMV-LACZ in Myotubes, signal relative to DMSO ([1]; 20 uM) | CMV-LACZ in Myotubes, signal relative to DMSO ([1]; 40 uM) | Burkin Assay in Myotubes, α7 integrin LacZ reporter signal relative to DMSO ([2]; 0.5 uM) | Burkin Assay in Myotubes, α7 integrin LacZ reporter signal relative to DMSO ([2]; 1 uM) | Burkin Assay in Myotubes, α7 integrin LacZ reporter signal relative to DMSO ([2]; 5 uM) | Burkin Assay in Myotubes, α7 integrin LacZ reporter signal relative to DMSO ([2]; 10 uM) | Burkin Assay in Myotubes, α7 integrin LacZ reporter signal relative to DMSO ([2]; 20 uM) | Burkin Assay in Myotubes, α7 integrin LacZ reporter signal relative to DMSO ([2]; 40 uM) | Burkin Assay in Myoblasts, signal relative to DMSO ([3]; 0.5 uM) | Burkin Assay in Myoblasts, signal relative to DMSO ([3]; 1 uM) | Burkin Assay in Myoblasts, signal relative to DMSO ([3]; 5 uM) | Burkin Assay in Myoblasts, signal relative to DMSO ([3]; 10 uM) | Burkin Assay in Myoblasts, signal relative to DMSO ([3]; 20 uM) | Burkin Assay in Myoblasts, signal relative to DMSO ([3]; 40 uM) | Burkin Assay in Myotubes (signal relative to DMSO) ([2]; 0.5 uM) | Burkin Assay in Myotubes (signal relative to DMSO) ([2]; 1 uM) | Burkin Assay in Myotubes (signal relative to DMSO) ([2]; 5 uM) | Burkin Assay in Myotubes (signal relative to DMSO) ([2]; 10 uM) | further results
CC1CCN(S(=O)(=O)c2ccc(S(=O)(=O)N3CCCC3)cc2)CC1 [MLS001217673-01] | 0.936 | 0.9409 | 1.161 | 0.9352 | 0.8894 | 0.749 | 0.9699 | 0.9516 | 1.095 | 1.078 | 0.8494 | 0.8343 | 0.9353 | 0.9256 | 0.8325 | 0.8079 | – | – | – | – | –
O=[N+]([O-])c1ccc(N2CCN(c3ccccc3F)CC2)nc1 [MLS001165749-01] | 0.8271 | 0.9284 | 1.024 | 1.038 | 0.9532 | 1.078 | 1.1624 | 1.122 | 0.7808 | 0.7342 | 1.048 | 1.057 | 1.034 | 0.9342 | 0.9628 | 0.7711 | – | – | – | – | –
OC1(c2ccccc2)C/C(=N\n2cnnc2)C=C1c1ccccc1 (stereo not shown) [MLS000081838-01] | 0.9175 | 0.8889 | 1.018 | 0.9697 | – | – | – | – | – | – | – | – | – | – | – | – | 0.7425 | 1.018 | 0.9002 | 0.8704 | Burkin Assay in Myotubes (signal relative to DMSO) ([2]; 20 uM): 1.225; Burkin Assay in Myotubes (signal relative to DMSO) ([2]; 40 uM): 1.036; Burkin Assay in Myoblasts, value relative to DMSO ([3]; 0.5 uM): 1.0627; Burkin Assay in Myoblasts, value relative to DMSO ([3]; 1 uM): 1.047; Burkin Assay in Myoblasts, value relative to DMSO ([3]; 5 uM): 0.9611; Burkin Assay in Myoblasts, value relative to DMSO ([3]; 10 uM): 0.9253; Burkin Assay in Myoblasts, value relative to DMSO ([3]; 20 uM): 0.9822; Burkin Assay in Myoblasts, value relative to DMSO ([3]; 40 uM): 0.9234
CCc1ccc(Sc2cc(C(=O)NCCN3CCOCC3)c3ccccc3n2)cc1 [MLS000584511-01] | 0.8355 | 0.8735 | 0.871 | 0.7478 | – | – | – | – | – | – | – | – | – | – | – | – | 1.0682 | 1.051 | 1.2189 | 1.163 | Burkin Assay in Myotubes (signal relative to DMSO) ([2]; 20 uM): 1.004; Burkin Assay in Myotubes (signal relative to DMSO) ([2]; 40 uM): 1.041; Burkin Assay in Myoblasts, value relative to DMSO ([3]; 0.5 uM): 0.5425; Burkin Assay in Myoblasts, value relative to DMSO ([3]; 1 uM): 0.8885; Burkin Assay in Myoblasts, value relative to DMSO ([3]; 5 uM): 1.033; Burkin Assay in Myoblasts, value relative to DMSO ([3]; 10 uM): 1.087; Burkin Assay in Myoblasts, value relative to DMSO ([3]; 20 uM): 1.05; Burkin Assay in Myoblasts, value relative to DMSO ([3]; 40 uM): 1.072
